Paper PMC5249144, “T Cell Subset and Stimulation Strength-Dependent Modulation of T Cell Activation by Kv1.3 Blockers” (PLoS ONE, 2017)
Where two headings read alike, the source gives them in different places.

What was measured:
[1] = system: thapsigargin stimulated human blood; assay: Thapsigargin stimulated whole blood IL-2 production; format: cell-based; details: whole blood diluted with equal volume IMDM, 20 hours
Experimental: Heparinized human blood was diluted with an equal volume of IMDM medium (Life Technologies) supplemented with 2% normal human A/B serum and plated at 200μl/well in 96-well plates for thapsigargin (Alomone) stimulation. CD4 T cells were plated at 5 x 10^5 cells/well in 96-well plates with 200μl medium/well. Blood or T cell samples were pre-treated with blockers or inhibitors for 30 minutes prior to stimulation with thapsigargin at 10μM or other concentrations as indicated for 20 hours. Cytokines in culture supernatants were measured as described in cytokine detection section.
(§1) Cytokines in supernatants collected from blood or T cell cultures were measured with ELISA or electrochemiluminescent assays. IL-2 was measured by ELISA using the human IL-2 Quantikine Kit (R&D Systems). Other cytokines were detected using multiplex human cytokine electro-chemiluminescent kit (Meso Scale Discovery).

human CD4 T cell subsets = format: cell-based
Text: (§2) Human PBMC were purified from donor blood by Ficoll-Paque (GE Healthcare) density centrifugation. CD4 or CD8 T cells were purified from human PBMC by negative selection using human CD4 or CD8 T cell isolation kit (Miltenyi Biotec) respectively. Naïve or memory CD4 T cells were isolated from CD4 T cells by negative selection using human naïve or memory CD4 T cell isolation kit (Miltenyi Biotec) respectively. Central and effector memory CD4 T cells were separated from memory CD4 T cells using biotinylated anti-CCR7 (BD Biosciences) and streptavidin coated magnetic beads (Miltenyie Biotec). Cells after treatment with antibodies and magnetic beads were purified with autoMACS (Miltenyi Biotec).
(§3) T cells were cultured in 96-well plates (Thermo Scientific) with 200μl medium/well. […]
(§4) Proliferation of T cells was measured by overnight pulsing with 1μCi/well of ^3H-thymidine (Perkin Elmer). […] Filter plates were soaked with scintillant (Perkin Elmer) and radioactivity was counted using a Topcount (Packard).
In order to further understand the activity profile of Kv1.3 blockers on T cells, we compared the effects of Kv1.3 blockers on primary naïve, central memory and effector memory CD4 T cells. […] Purified T cells were activated with anti-CD3 in the presence of mitomycin C treated PBMC and the effects of Kv1.3 blockers on T cell proliferation were monitored and compared to cyclosporine A and BTP2.

[2] = system: human CD4 and CD8 T cells; format: cell-based
Text: as §2, §3, §4, §1

[3] = system: PBMC from allergic rhinitis patients; format: cell-based, human
Experimental: T cells were cultured in 96-well plates (Thermo Scientific) with 200μl medium/well. Culture medium was RPMI-1640 medium supplemented with 2% human A/B serum (Valley Biomedical Prod & Srv Inc.), 2 mM glutamine, 1mM sodium pyruvate, 10mM HEPES, 1mM MEM nonessential amino acid solution, and 100 U/ml each of penicillin G and streptomycin (all culture reagents from Life Technologies except for human serum). T cells were pre-treated with Kv1.3 blockers and other inhibitors for 30 minutes before stimulation. All assays were conducted with samples in duplicates or triplicates.
For T cell pan-activation with beads coated with anti-CD3 and anti-CD28 (eBioscience), T cells at 2 x 10^5 cells/well in 96-well flat-bottom plates were stimulated overnight with anti-CD3 and anti-CD28 coated beads (Miltenyi Biotec) at 2:1 bead/cell ratio or as indicated. For T cell pan-activation with anti-CD3, T cells at 5 x 10^4 cells/well in 96-well U-bottom plates were stimulated for 2 days with 1ng/ml of anti-CD3 in the presence of mitomycin C treated autologous PBMC at 1:1 T cell/PBMC ratio. […]
as §4

Kv1.3 = details: ref [5], [20]–[23]; cited from earlier work
human CD4 T cells [4] = assay: Calcium flux in CD4 T cells, anti-CD3/CD28; format: cell-based; details: BTP2 1μM
Experimental: (§5) T cells were loaded with 3μM each of Fluo4 and Fura red (Molecular Probes, Invitrogen) for 45 minutes in the dark at 37°C in cell loading medium (DMEM medium with 10mM HEPES and 10% fetal calf serum) in the presence of 0.01% pluronic acid (Molecular Probes). Dye-loaded cells were rinsed twice with loading medium, incubated with 10μg/ml mouse anti-CD3 (BD Biosciences) and 2.5μg/ml mouse anti-CD28 (BD Biosciences) for 30 minutes at room temperature, and then rinsed again with loading medium to be ready for calcium flux studies. Cells were acquired with FACS LSRII and cell activation was initiated by addition of goat anti-mouse antibody (Jackson ImmunoResearch) to final 10μg/ml. CD4 T cells were also stimulated with 1μM thapsigargin. Kinetics of calcium flux in activated cells were monitored by reading the calcium dependent Fluo4 emission signals at 530nm compared to non-specific Fura red signals at 685nm. Calcium flux was calculated as ratio of Fluo4 to Fura red emission signals.

human CD4 T cells [5] = assay: Calcium flux in CD4 T cells, thapsigargin; format: cell-based; details: BTP2 1μM, thapsigargin 1μM, monitored for 10 minutes
Experimental: as §5

| Compound | inhibition of IL-2 release from thapsigargin stimulated whole blood, in words [1] | inhibition of proliferation of T cell subsets, in words (human CD4 T cell subsets) | block of T cell activation [2] | inhibition of T cell activation, in words [2] | ragweed proliferative response, in words [3] | Kv1.3 block, in words (Kv1.3) | reduction of calcium flux, in words (human CD4 T cells [4]; anti-CD3/CD28, monitored for 10 minutes) | calcium flux by T cell population, in words (human CD4 T cells [4]; ShK 1nM, activated CD4 T cells, Fig 4C (anti-CD3/CD28 or thapsigargin)) | inhibition of proliferation of T cell subsets, in words (human CD4 T cell subsets; maximal efficacious concentrations, naïve, Tcm, Tem CD4 T cells, anti-CD3/PBMC) | reduction of calcium flux, in words (human CD4 T cells [5]) |
| --- | --- | --- | --- | --- | --- | --- | --- | --- | --- | --- |
| cyclosporine A | fully efficacious | complete inhibition | ~100% | fully inhibits T cell activation in all stimulation conditions | reduced the proliferative response to its basal level |  |  |  |  |  |
| CC[C@H](C)[C@@H]1NC(=O)[C@@H]2CSSC[C@@H]3NC(=O)[C@H](CCCCN)NC(=O)CNC(=O)[C@H](CC(N)=O)NC(=O)[C@H](CCSC)NC(=O)[C@H](CSSC[C@H](NC(=O)[C@H](CCCCN)NC(=O)[C@@H](NC(=O)[C@H](CC(=O)O)NC(=O)[C@@H](NC(=O)[C@@H]4CCCN4C(=O)[C@@H](NC(=O)CN)C(C)C)[C@@H](C)O)C(C)C)C(=O)N[C@@H](CCCNC(=N)N)C(=O)NCC(=O)N[C@@H](CO)C(=O)N4CCC[C@H]4C(=O)N[C@@H](CCC(N)=O)C(=O)N2)NC(=O)[C@H](CCCCN)NC(=O)CNC(=O)[C@H](Cc2ccccc2)NC(=O)[C@H](CCCNC(=N)N)NC(=O)[C@H](CCSC)NC(=O)CNC(=O)[C@H](C)NC(=O)[C@H](CC(=O)O)NC(=O)[C@H](CCCCN)NC(=O)[C@H](CSSC[C@@H](C(=O)N[C@H](C(=O)N2CCC[C@H]2C(=O)N[C@@H](CCCCN)C(=O)O)[C@@H](C)O)NC(=O)[C@H](Cc2c[nH]cn2)NC3=O)NC(=O)[C@@H]2CCCN2C(=O)[C@H](CCC(N)=O)NC1=O [OdK2] |  |  |  |  |  | potent blockers of Kv1.3 |  |  |  |  |
| Cc1nnsc1C(=O)Nc1ccc(-n2nc(C(F)(F)F)cc2C(F)(F)F)cc1 [BTP2] | fully efficacious |  |  |  |  |  | significantly reduced the calcium flux levels | reduced calcium flux in all activated T cells | complete inhibition | significantly reduced the calcium flux levels |
